# Data as given in patent publication US9234222B2, “Microbial strains producing sphingoid bases or derivatives thereof” (EVONIK DEGUSSA GMBH, priority 2004, dated 2016).
# Bridge positions count the residues as written; N and C are the ends. Square brackets hold non-standard residues; d marks the D form. Peptide text beside a SMILES is read from it. * marks the point of attachment. Asp(3S-OH) = N[C@H](C(=O)O)[C@H](O)C(=O)O; Thr(4-Cl) = N[C@H](C(=O)O)[C@H](O)CCl; X1 = CCCCCCCCC[C@@H](O)CC(=O)*; dDab = NCC[C@@H](N)C(=O)O; Dab = NCC[C@H](N)C(=O)O; Dhb = C/C=C(\N)C(=O)O
# System: Pichia ciferrii strains
# Assay: Minimal inhibitory concentration of SyringomycinE on YEPD agar plates
# Format: cell-based
# Conditions: 10 μg/ml in YEPD selective plates
# Description: In order to isolate high sphinganine producing Pichia ciferrii strains the following procedure was followed. First, the natural sensitivity of Pichia ciferrii strains for the toxic compound SyringomycinE, produced by […] syringae (Gross D C, 1985, Regulation of syringomycin synthesis in Pseudomonas syringae pv. syringae and defined conditions for its production. J Appl Bacteriol. 58:167-174), was determined by adding different concentrations of SyringomycinE to agar plates. A stock solution of 3.5 mg SyringomycinE (obtained from J. Takemoto, Utah State University) was prepared by dissolving it in 1.0 ml 0.001 N HCl. The pH was kept below 7 for stability and stored at −20° C. The minimal inhibitory concentration (=MIC-value) for Pichia ciferrii strains was determined by using YEPD plates (per liter: Yeast Extract, 10 g; Pepton, 20 g; Glucose, 20 g; Agar, 20 g) containing various concentrations between 0.1 and 20 μg/ml syringomycinE. On each plate with the different concentrations of syringomycinE 100 μl of a freshly grown culture (OD600 nm=0.4) was plated and incubated at 30° C. for 5 days.
# Depending on the strain no colonies appeared on plates with 2 to 10 μg/ml of SyringomycinE, meaning that the MIC value lies between 2 and 10 μg/ml. […]
smiles,measurement,value
C/C=C1\NC(=O)[C@H](Cc2ccccc2)NC(=O)[C@H](CCCN=C(N)N)NC(=O)[C@@H](CCN)NC(=O)[C@H](CCN)NC(=O)[C@@H](CO)NC(=O)[C@@H](NC(=O)C[C@H](O)CCCCCCCCC)COC(=O)[C@H]([C@H](O)CCl)NC(=O)[C@H]([C@H](O)C(=O)O)NC1=O [SyringomycinE] (X1-S[dS][Dab][dDab]RF[Dhb][Asp(3S-OH)][Thr(4-Cl)]; ester 1-C),effect on standard P. ciferrii strains,lethal
